This passage reports GI50 and TGI results from PubChem BioAssay (NCI).

Some test systems named below: EKVX NSCLC; HT29 colon; KM12 colon; LOX IMVI melanoma; NCI-H226 lung; OVCAR-5 ovarian; RXF 393 renal; SK-MEL-28 melanoma; SW-620 colon; UACC-62 melanoma.
What all share (assay): NCI-60 cell line screen, 48 h

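1) Cells in 96-well plates. 2) Compound, 48 h, 5 concentrations. 3) Linear interpolation between surrounding doses. 4) Unreached endpoint = highest concentration. Abbreviation: GI50, concentration required for 50% inhibition of growth. TGI is the concentration that stops growth completely.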

As for `N=C1C(c2nc3ccccc3s2)=C(O)CN1c1ccc(Cl)cc1Cl`, the GI50 in the experiment with EKVX NSCLC is 29.9 µM; with HT29 colon it was 16.4 µM; in the experiment on KM12 colon it was 11.7 µM; with LOX IMVI melanoma, 14.8 µM; with NCI-H226 lung it was 16.9 µM; with OVCAR-5 ovarian, 34.8 µM. In addition, the GI50 was 10.8 µM in the experiment on RXF 393 renal, 21 µM in the experiment with SK-MEL-28 melanoma, 36.7 µM in the experiment on SW-620 colon and 12 µM in the experiment with UACC-62 melanoma. Also, the TGI with EKVX NSCLC was 85.5 µM; with HT29 colon, more than 100 µM; in the experiment with KM12 colon it was 65.7 µM; in the experiment on LOX IMVI melanoma it was 41.2 µM; in the experiment on NCI-H226 lung it was 40.7 µM; in the experiment on OVCAR-5 ovarian, more than 100 µM. The TGI with RXF 393 renal was 36.1 µM; in the experiment with SK-MEL-28 melanoma, more than 100 µM; in the experiment on SW-620 colon, more than 100 µM; with UACC-62 melanoma, 52.9 µM.

`CC1=C2C(=O)C(C)(C)C=C2C(=O)[C@](C)(O)C12CC2`: the TGI with EKVX NSCLC, in the experiment with HT29 colon, in the experiment with KM12 colon, in the experiment on LOX IMVI melanoma, in the experiment with NCI-H226 lung and in the experiment with OVCAR-5 ovarian was more than 1 µM each time. Moreover, the TGI in the experiment on RXF 393 renal, with SK-MEL-28 melanoma, in the experiment on SW-620 colon and in the experiment on UACC-62 melanoma was more than 1 µM throughout.

On to `C#Cc1cccc(Nc2ncnc3ccc(-c4cnc(Cl)c(NS(C)(=O)=O)c4)cc23)c1`, for which the GI50 in the experiment on EKVX NSCLC is 0.253 µM; with HT29 colon, 0.404 µM; with KM12 colon it was 0.891 µM; in the experiment on LOX IMVI melanoma, 0.281 µM; in the experiment on NCI-H226 lung, 0.564 µM; in the experiment on OVCAR-5 ovarian, 0.329 µM. Further, the GI50 in the experiment on RXF 393 renal is 0.218 µM; with SK-MEL-28 melanoma it was 0.182 µM; in the experiment on SW-620 colon it was 0.467 µM; in the experiment with UACC-62 melanoma it was 0.149 µM. Further, the TGI turned out to be 1.87 µM in the experiment on EKVX NSCLC; 2.55 µM in the experiment on KM12 colon; 1.8 µM in the experiment with LOX IMVI melanoma; 4.3 µM in the experiment on NCI-H226 lung; 2.73 µM in the experiment on OVCAR-5 ovarian; 0.996 µM in the experiment with RXF 393 renal. Also, the TGI with SK-MEL-28 melanoma worked out at 1.93 µM; in the experiment with SW-620 colon, 5.65 µM; in the experiment on UACC-62 melanoma, 1.07 µM.

In the case of `O=C(c1cc2c(C(F)(F)F)onc2c2ccccc12)C(F)(F)F`, the TGI was more than 33.3 µM in the experiment with EKVX NSCLC; more than 61.7 µM in the experiment with HT29 colon; 52.9 µM in the experiment on KM12 colon; 18.3 µM with LOX IMVI melanoma; 13.5 µM in the experiment on NCI-H226 lung; more than 100 µM in the experiment with OVCAR-5 ovarian. Further, the TGI with RXF 393 renal was 17.4 µM; in the experiment on SK-MEL-28 melanoma, more than 75.1 µM; in the experiment on SW-620 colon, more than 100 µM; with UACC-62 melanoma, 17 µM.

With `COc1ccc(C(=O)C(Br)C(Br)C(=O)O)cc1` (centres undefined), the TGI with EKVX NSCLC was more than 100 µM; in the experiment on HT29 colon, 31 µM; with KM12 colon, more than 100 µM; in the experiment with LOX IMVI melanoma, 54 µM; in the experiment on NCI-H226 lung it was more than 100 µM; with OVCAR-5 ovarian, more than 100 µM. The TGI was 56.4 µM in the experiment on RXF 393 renal, more than 100 µM in the experiment on SK-MEL-28 melanoma, 52.3 µM in the experiment with SW-620 colon and more than 100 µM in the experiment on UACC-62 melanoma.

For the compound `CCC(O)(c1ccc(OC)cc1)C(c1ccc(OCc2ccccc2)cc1)c1ccc(OCc2ccccc2)cc1` (centres undefined), the TGI with EKVX NSCLC, with HT29 colon, with KM12 colon, in the experiment with LOX IMVI melanoma, with NCI-H226 lung and with OVCAR-5 ovarian was more than 100 µM throughout. Moreover, the TGI in the experiment on RXF 393 renal, in the experiment with SK-MEL-28 melanoma, in the experiment with SW-620 colon and in the experiment with UACC-62 melanoma was more than 100 µM in each case.

Consider `Cc1cccc2c1NC(=O)[C@@]21[C@H](C(=O)c2ccccc2)[C@]2(C(=O)Nc3ccccc32)[C@H]2CCCN21`, for which the GI50 was 40.6 µM with EKVX NSCLC; 37.3 µM in the experiment with HT29 colon; 58.9 µM in the experiment with KM12 colon; 34.5 µM with LOX IMVI melanoma; 27.1 µM with NCI-H226 lung; more than 100 µM in the experiment with OVCAR-5 ovarian. Also, the GI50 with RXF 393 renal is 13.5 µM; in the experiment with SK-MEL-28 melanoma, 34.3 µM; in the experiment with SW-620 colon, 21.6 µM; in the experiment on UACC-62 melanoma, 12.5 µM. For the same compound, the TGI in the experiment with EKVX NSCLC, in the experiment with HT29 colon, in the experiment on KM12 colon, in the experiment on LOX IMVI melanoma, with NCI-H226 lung and in the experiment with OVCAR-5 ovarian was more than 100 µM throughout. Further, the TGI was 47.5 µM in the experiment on RXF 393 renal, more than 100 µM in the experiment with SK-MEL-28 melanoma, more than 100 µM in the experiment on SW-620 colon and more than 100 µM in the experiment with UACC-62 melanoma.

`O=c1ccccc(-c2ccc(-c3ccco3)cc2)c1O`: the GI50 is 0.406 µM with EKVX NSCLC; 1.7 µM in the experiment with HT29 colon; 0.743 µM in the experiment on KM12 colon; 0.472 µM with LOX IMVI melanoma; 2.31 µM in the experiment on NCI-H226 lung; 2.79 µM in the experiment with OVCAR-5 ovarian. The GI50 in the experiment with RXF 393 renal is 0.951 µM; with SK-MEL-28 melanoma it was 0.79 µM; in the experiment on SW-620 colon, 0.438 µM; in the experiment with UACC-62 melanoma it was 0.588 µM. Also, the TGI was found to be 7.9 µM in the experiment on EKVX NSCLC; 65.6 µM in the experiment on HT29 colon; 17.5 µM with KM12 colon; 11.2 µM in the experiment with LOX IMVI melanoma; 23 µM with NCI-H226 lung; 42 µM with OVCAR-5 ovarian. Further, the TGI came out at 17.2 µM in the experiment on RXF 393 renal, 17.8 µM with SK-MEL-28 melanoma, 29.1 µM in the experiment on SW-620 colon and 4.14 µM in the experiment with UACC-62 melanoma.

With `CC(C(=O)c1ccccc1)C1(O)C(=O)Nc2ccccc21` (centres undefined), the TGI in the experiment on EKVX NSCLC, in the experiment with HT29 colon, with KM12 colon, with LOX IMVI melanoma, with NCI-H226 lung and with OVCAR-5 ovarian was more than 100 µM throughout. The TGI with RXF 393 renal, in the experiment on SK-MEL-28 melanoma, in the experiment on SW-620 colon and with UACC-62 melanoma was more than 100 µM throughout.
